Patent publication US20220144847A1, “HETEROCYCLIC COMPOUND, PHARMACEUTICAL COMPOSITION COMPRISING SAME, PREPARATION METHOD THEREFOR, AND USE THEREOF” (Sichuan Kelun-Biotech Biopharmaceutical Co., Ltd., priority 2019, published 2022)
Like-named read-outs stand apart in the source and are kept apart here.

Key:
RET-WT = RET-WT (Homo sapiens, UniProt P07949); test: RET inhibition experiment (HTRF KinEASE-TK kit), wild-type RET enzyme; format: biochemical; conditions: read-out: The IC50 (nM) for inhibiting RET-WT
Procedure: (§1) Experimental method: […] After incubation at room temperature for 40 min, TK antibody-cryptate and streptavidin-XL665 were added, and the test was performed after incubation at room temperature for 45 min. With the solvent group (DMSO) as the negative control and the buffer group (without RET enzyme) as the blank control, the relative inhibitory activity percentages (i.e., inhibition rates) of different concentrations of the compounds were computed as per the following formula: […] The relative inhibitory activity percentages of different concentrations of the compounds were plotted with respect to the compound concentrations, and the curve was fitted according to a four-parameter model to compute the IC50 value as per the following formula: y=min+(max-min)/(1+(x/IC50)^(-Hillslope)) where y is the relative inhibitory activity percentage, max is the maximum value of the fitted curve, min is the minimum value of the fitted curve, x is the logarithmic concentration of the compound, and Hillslope is the slope of the curve.

RET-V804L = RET-V804L (Homo sapiens, UniProt P07949, V804L); test: RET inhibition experiment (HTRF KinEASE-TK kit), mutant RET-V804L; format: biochemical; conditions: read-out: The IC50 (nM) for inhibiting RET-V804L
Procedure: as §1

RET-M918T = RET-M918T (Homo sapiens, UniProt P07949, M918T); test: RET inhibition experiment (HTRF KinEASE-TK kit), mutant RET-M918T; format: biochemical; conditions: read-out: The IC50 (nM) for inhibiting the enzyme RET-M918T
Procedure: as §1

VEGFR2 = VEGFR2 (Homo sapiens, UniProt P35968); test: VEGFR2 inhibition experiment (HTRF KinEASE-TK kit); format: biochemical; conditions: read-out: IC50 for inhibiting VEGFR2
How it was run: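 HTRF KinEASE-TK format: enzyme and compound were preincubated 30 min at room temperature, then substrate and ATP added for 40 min, followed by cryptate antibody/streptavidin-XL665 detection for 45 min. Inhibition was normalised to DMSO and no-enzyme controls; IC50 from a four-parameter fit.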

[1] = Pharmacokinetics and tissue distribution of compounds in rats; format: in vivo; conditions: male, SD, rat, PO 5 mg/kg; for AUC(0-t): read-out: AUC AUClast; for Cmax: read-out: Peak concentration Cmax; for Kp: read-out: T/P Ratio of AUClast in tissue to plasma; for Tmax: read-out: Time to peak concentration Tmax
Procedure: By intragastric administration (PO) of BLU-667 (prepared according to Example 5 of WO2017/079140A1) and Compound 17 to male SD rats respectively, the plasma concentrations and the tissue concentrations of BLU-667 and Compound 17 in brains, lungs and thyroid of rats were determined to investigate the pharmacokinetic characteristics. The dosage of administration by PO was 5 mg/kg, and the solvent was 0.5% MC (methylcellulose). With administration by PO, blood samples were collected at different time points (0 h before administration, and 0.25 h, 0.5 h, 1 h, 2 h, 4 h, 6 h, 8 h, and 24 h after administration). The blood samples were anticoagulated with dipotassium edetate, and centrifuged to provide plasma samples, which were stored at −80° C. Rats were sacrificed by exsanguination from abdominal aorta at 0.5 h, 2 h, 8 h, and 24 h after PO administration. Brain, lung and thyroid were collected, washed, and homogenized with normal saline at a certain ratio, to provide tissue samples which were stored at −80° C. The plasma samples and tissue samples were processed with precipitated protein and then analyzed by LC-MS/MS. The pharmacokinetic parameters were computed using WinNonlin 6.3 software and using a non-compartmental model.

[2] = test system: human medullary thyroid carcinoma TT cells; test: Efficacy test in mice, subcutaneous xenograft tumor of TT cells; format: in vivo, Balb/c-nu mouse; conditions: 5 mg/kg, PO, BID; TT nude mouse xenograft
Procedure: Experimental purpose: To evaluate the in vivo efficacy of Compound 17 and BLU-667 in a Balb/c-nu mouse model with a subcutaneous xenograft tumor of human medullary thyroid carcinoma TT cells.
Drug preparation: Compound 17 was dissolved in 0.1 M aqueous solution of H3PO4, and BLU-667 was dissolved in 0.1 M aqueous solution of HOAc, to prepare clear solutions (pH: about 4.0). An aqueous solution of H3PO4 at a pH of about 4.0 was used for the solvent control group. The mode of administration was PO, BID.
Tumor measurement: The tumor diameter was measured with a vernier caliper twice a week. The computing formula of the tumor volume is: V=0.5×a×b^2, where a represents a long diameter of the tumor, and b represents a short diameter of the tumor. Evaluation of tumor growth inhibition rate (TGI (%)) for tumor inhibition efficacy of the compounds: TGI (%)=[(1-(mean tumor volume of a treatment group at the end of drug administration-mean tumor volume of the treatment group at the commencement of drug administration))/(mean tumor volume of a solvent control group at the end of treatment-mean tumor volume of the solvent control group at the commencement of treatment)]×100%.
Statistical analysis: Prism Graphpad5.0 software was used for statistical analysis based on the relative tumor volume at the end of the experiment. The comparison between multiple groups was analyzed by two-way ANOVA, and p<0.05 was considered as a significant difference.
Experimental results: In the TT nude mouse xenograft model of human medullary thyroid carcinoma, Compound 17 has a significant […] anti-tumor effect at a dose of 5 mg/kg. […] Relative tumor growth rate T/C (%)=TRTV/CRTV×100%, where TRTV is the mean relative tumor volume of the test compound group, CRTV is the relative tumor volume of the solvent control group; and the relative tumor volume RTV=Vt/V0, where V0 is the mean tumor volume at the commencement of the administration, and Vt is the mean tumor volume measured on day t after the administration.

Sequence of VEGFR2 (P35968 20-1356, species assumed): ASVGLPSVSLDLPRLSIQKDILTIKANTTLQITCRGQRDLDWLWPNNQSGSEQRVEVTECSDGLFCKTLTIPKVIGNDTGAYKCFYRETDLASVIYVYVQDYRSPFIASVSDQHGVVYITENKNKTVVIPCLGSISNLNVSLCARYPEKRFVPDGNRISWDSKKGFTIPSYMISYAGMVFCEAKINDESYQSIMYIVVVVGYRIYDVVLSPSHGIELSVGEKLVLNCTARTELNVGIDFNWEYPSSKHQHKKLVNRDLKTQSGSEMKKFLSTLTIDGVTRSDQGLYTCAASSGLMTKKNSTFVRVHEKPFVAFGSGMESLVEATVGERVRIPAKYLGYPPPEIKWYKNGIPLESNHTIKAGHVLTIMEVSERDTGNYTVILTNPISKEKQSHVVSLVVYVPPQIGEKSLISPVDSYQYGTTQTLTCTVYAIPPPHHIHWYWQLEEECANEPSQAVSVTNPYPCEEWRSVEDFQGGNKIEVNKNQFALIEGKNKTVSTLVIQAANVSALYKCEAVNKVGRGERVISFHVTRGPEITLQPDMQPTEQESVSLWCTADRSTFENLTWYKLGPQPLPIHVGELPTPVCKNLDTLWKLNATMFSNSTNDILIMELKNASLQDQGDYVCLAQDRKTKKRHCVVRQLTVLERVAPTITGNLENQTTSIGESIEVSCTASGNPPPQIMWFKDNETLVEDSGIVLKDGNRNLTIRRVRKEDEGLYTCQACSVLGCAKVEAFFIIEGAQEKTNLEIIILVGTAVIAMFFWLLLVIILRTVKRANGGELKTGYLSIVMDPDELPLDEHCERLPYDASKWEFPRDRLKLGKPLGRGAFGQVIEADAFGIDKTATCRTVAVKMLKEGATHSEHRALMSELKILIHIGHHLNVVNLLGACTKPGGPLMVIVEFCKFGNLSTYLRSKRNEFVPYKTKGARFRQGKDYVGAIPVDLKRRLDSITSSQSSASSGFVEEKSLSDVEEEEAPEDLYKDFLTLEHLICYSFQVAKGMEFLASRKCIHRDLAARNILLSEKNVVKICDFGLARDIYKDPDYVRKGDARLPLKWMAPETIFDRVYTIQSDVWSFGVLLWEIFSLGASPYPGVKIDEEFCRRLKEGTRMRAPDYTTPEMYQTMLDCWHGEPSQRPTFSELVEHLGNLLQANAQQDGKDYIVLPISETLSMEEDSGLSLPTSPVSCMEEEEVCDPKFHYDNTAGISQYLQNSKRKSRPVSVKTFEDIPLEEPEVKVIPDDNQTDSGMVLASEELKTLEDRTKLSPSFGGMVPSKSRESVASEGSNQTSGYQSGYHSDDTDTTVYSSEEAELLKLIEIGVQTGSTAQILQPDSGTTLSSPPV
Sequence of RET-WT (P07949 29-1114): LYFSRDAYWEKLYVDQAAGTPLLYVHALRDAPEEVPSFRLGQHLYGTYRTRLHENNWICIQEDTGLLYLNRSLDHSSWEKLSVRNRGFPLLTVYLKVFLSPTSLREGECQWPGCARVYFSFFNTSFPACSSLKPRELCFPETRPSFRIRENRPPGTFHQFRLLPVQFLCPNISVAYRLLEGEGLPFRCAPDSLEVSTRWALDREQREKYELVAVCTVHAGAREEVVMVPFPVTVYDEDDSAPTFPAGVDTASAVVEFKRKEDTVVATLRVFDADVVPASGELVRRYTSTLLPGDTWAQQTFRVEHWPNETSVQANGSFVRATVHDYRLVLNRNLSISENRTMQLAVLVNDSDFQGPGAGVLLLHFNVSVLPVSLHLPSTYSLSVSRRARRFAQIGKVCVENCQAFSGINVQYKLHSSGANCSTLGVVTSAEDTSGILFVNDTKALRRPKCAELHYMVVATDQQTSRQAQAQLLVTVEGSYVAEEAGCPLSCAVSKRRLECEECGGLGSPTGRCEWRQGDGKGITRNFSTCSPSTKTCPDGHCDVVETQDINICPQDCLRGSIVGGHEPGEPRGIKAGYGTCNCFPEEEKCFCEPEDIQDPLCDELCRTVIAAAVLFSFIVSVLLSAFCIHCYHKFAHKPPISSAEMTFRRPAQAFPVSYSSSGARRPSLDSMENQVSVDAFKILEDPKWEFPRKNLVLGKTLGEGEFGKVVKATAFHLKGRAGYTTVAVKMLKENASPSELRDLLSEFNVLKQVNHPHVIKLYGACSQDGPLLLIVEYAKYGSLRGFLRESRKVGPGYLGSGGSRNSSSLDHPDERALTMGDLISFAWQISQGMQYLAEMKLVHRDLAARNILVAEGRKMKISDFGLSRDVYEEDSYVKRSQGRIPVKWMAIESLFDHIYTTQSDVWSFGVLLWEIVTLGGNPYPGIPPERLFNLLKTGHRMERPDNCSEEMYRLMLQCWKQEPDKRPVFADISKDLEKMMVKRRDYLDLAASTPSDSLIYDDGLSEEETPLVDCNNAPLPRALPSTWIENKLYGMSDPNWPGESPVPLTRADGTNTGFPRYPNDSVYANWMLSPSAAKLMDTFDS
Sequence of RET-M918T (P07949 29-1114 M918T): as the sequence (P07949 29-1114) above, with M890T counted along it
Sequence of RET-V804L (P07949 29-1114 V804L): as the sequence (P07949 29-1114) above, with V776L counted along it

**Q.** With Cc1cc(Nc2cc(C)[nH]n2)nc(-c2ccc(N3CC4CC(C3)N4Cc3ccc(-n4cc(F)cn4)nc3)nc2)n1 [Compound 17, 2-(6-(6-((6-(4-fluoro-1H-pyrazol-1-yl)pyridin-3-yl)methyl)-3,6-diazabicyclo[3.1.1]heptan-3-yl)pyridin-3-yl)-6-methyl-N-(5-methyl-1H-pyrazol-3-yl)pyrimidin-4-amine] as the compound, how does the IC50 (RET-WT) read?
**A.** 1.32 ± 0.31 nM

**Q.** What about the IC50 (RET-V804L) of the same compound?
**A.** 6.54 ± 2.43 nM

**Q.** What about the IC50 (RET-M918T) of the same compound?
**A.** 1.47 ± 0.29 nM

**Q.** What about the IC50 (VEGFR2) of the same compound?
**A.** 63 ± 11.8 nM

**Q.** And the AUC(0-t) ([1]; brain)?
**A.** 1010 ng·h/mL

**Q.** And the Cmax ([1]; brain)?
**A.** 153 ng/mL

**Q.** What about the Kp ([1]; brain) of the same compound?
**A.** 0.15

**Q.** What about the Tmax ([1]; brain) of the same compound?
**A.** 2 h

**Q.** And the AUC(0-t) ([1]; lung)?
**A.** 79600 ng·h/mL

**Q.** And the Cmax ([1]; lung)?
**A.** 9620 ng/mL

**Q.** And the Kp ([1]; lung)?
**A.** 11.7

**Q.** What about the Tmax ([1]; lung) of the same compound?
**A.** 2 h

**Q.** And the AUC(0-t) ([1]; plasma)?
**A.** 6790 ng·h/mL

**Q.** And the Cmax ([1]; plasma)?
**A.** 772 ng/mL

**Q.** And the Kp ([1]; plasma)?
**A.** 1

**Q.** And the Tmax ([1]; plasma)?
**A.** 2 h

**Q.** And the AUC(0-t) ([1]; thyroid)?
**A.** 11400 ng·h/mL

**Q.** What about the Cmax ([1]; thyroid) of the same compound?
**A.** 1870 ng/mL

**Q.** And the Kp ([1]; thyroid)?
**A.** 1.68

**Q.** What about the Tmax ([1]; thyroid) of the same compound?
**A.** 8.49 h

**Q.** And the “Relative tumor growth rate T/C” value [2]?
**A.** 17.44%

**Q.** What about the “Tumor growth inhibition rate TGI” value [2] of the same compound?
**A.** 131.36%
